The CheMixHub viscosity set
± gives the uncertainty stated by the source.

Assay: xn = mol fraction of the nth substance listed

COCCOCCOCCOCCOC + CCCO
viscosity [mPa·s], 101 kPa
Settings	298.15 K	308.15 K
x1 = 0.0071	1.913 ± 0.058	1.492 ± 0.046
x1 = 0.0125	1.9 ± 0.058	1.485 ± 0.046
x1 = 0.0309	1.872 ± 0.057	1.475 ± 0.046
x1 = 0.0504	1.852 ± 0.056	1.463 ± 0.045
x1 = 0.1024	1.841 ± 0.056	1.467 ± 0.046
x1 = 0.1342	1.861 ± 0.056	1.488 ± 0.046
x1 = 0.1847	1.908 ± 0.058	1.528 ± 0.047
x1 = 0.2444	1.989 ± 0.06	1.593 ± 0.049
x1 = 0.2916	2.062 ± 0.062	1.645 ± 0.051
x1 = 0.3271	2.126 ± 0.064	1.697 ± 0.052
x1 = 0.369	2.192 ± 0.066	1.754 ± 0.054
x1 = 0.4386	2.31 ± 0.069	1.84 ± 0.056
x1 = 0.4814	2.384 ± 0.071	1.896 ± 0.058
x1 = 0.5238	2.466 ± 0.074	1.953 ± 0.059
x1 = 0.5941	2.577 ± 0.077	2.041 ± 0.062
x1 = 0.6423	2.665 ± 0.079	2.104 ± 0.064
x1 = 0.7174	2.797 ± 0.083	2.205 ± 0.067
x1 = 0.7487	2.855 ± 0.085	2.247 ± 0.068
x1 = 0.7864	2.91 ± 0.086	2.291 ± 0.069
x1 = 0.8401	3.007 ± 0.089	2.36 ± 0.071

C=CC(=O)OCC + CCCCCCCCCCO
viscosity [mPa·s], 101.3 kPa
Settings	x1 = 0.0861	x1 = 0.235	x1 = 0.302	x1 = 0.4261	x1 = 0.5383	x1 = 0.7248	x1 = 0.8036	x1 = 0.8763	x1 = 0.9389	x1 = 0.9688
298.15 K	8.526 ± 0.33	5.017 ± 0.22	3.969 ± 0.18	2.618 ± 0.12	1.895 ± 0.088	1.076 ± 0.053	0.86 ± 0.044	0.702 ± 0.037	0.602 ± 0.032	0.563 ± 0.031
308.15 K	6.006 ± 0.25	3.812 ± 0.17	3.085 ± 0.14	2.104 ± 0.097	1.515 ± 0.072	0.898 ± 0.045	0.73 ± 0.038	–	0.525 ± 0.029	0.497 ± 0.028

Clc1ccccc1 + CCCCOC(C)=O
viscosity [mPa·s], 101 kPa
Settings	298.15 K	308.15 K
x2 = 0.0484	0.744 ± 0.005	0.669 ± 0.005
x2 = 0.1504	0.723 ± 0.005	0.651 ± 0.005
x2 = 0.2515	0.706 ± 0.005	0.636 ± 0.005
x2 = 0.349	0.692 ± 0.005	0.624 ± 0.005
x2 = 0.4447	0.682 ± 0.005	0.614 ± 0.005
x2 = 0.4933	0.678 ± 0.005	0.61 ± 0.005
x2 = 0.5503	0.674 ± 0.005	0.605 ± 0.005
x2 = 0.6502	0.669 ± 0.005	0.599 ± 0.005
x2 = 0.7514	0.667 ± 0.005	0.595 ± 0.005
x2 = 0.8498	0.668 ± 0.005	0.593 ± 0.005
x2 = 0.9417	0.671 ± 0.005	0.593 ± 0.005

CCc1ccccc1 + CCO
viscosity [mPa·s], 101.33 kPa
Settings	x2 = 0.4	x2 = 0.6	x2 = 0.8	x2 = 0.9
303 K	0.625 ± 0.0058	0.732 ± 0.0067	0.842 ± 0.0076	0.9 ± 0.0081
313 K	0.547 ± 0.0052	0.627 ± 0.0058	0.706 ± 0.0065	0.752 ± 0.0069
323 K	0.482 ± 0.0046	0.54 ± 0.0051	0.602 ± 0.0056	0.632 ± 0.0057

CC(O)C(=O)O (stereo not given) + CC(C)[C@@H]1CC[C@@H](C)C[C@H]1O
100 kPa, x2 = 0.67
Settings	viscosity [mPa·s]
293.15 K	370.9 ± 21
298.15 K	218.9 ± 11
303.15 K	134.3 ± 6.8
308.15 K	86.53 ± 4.3
313.15 K	58.84 ± 2.9
318.15 K	40.71 ± 2
323.15 K	29.47 ± 1.4
